One assay deals with T1, Androgen receptor (Homo sapiens, UniProt P10275).
T1 sequence (P10275 whole entry): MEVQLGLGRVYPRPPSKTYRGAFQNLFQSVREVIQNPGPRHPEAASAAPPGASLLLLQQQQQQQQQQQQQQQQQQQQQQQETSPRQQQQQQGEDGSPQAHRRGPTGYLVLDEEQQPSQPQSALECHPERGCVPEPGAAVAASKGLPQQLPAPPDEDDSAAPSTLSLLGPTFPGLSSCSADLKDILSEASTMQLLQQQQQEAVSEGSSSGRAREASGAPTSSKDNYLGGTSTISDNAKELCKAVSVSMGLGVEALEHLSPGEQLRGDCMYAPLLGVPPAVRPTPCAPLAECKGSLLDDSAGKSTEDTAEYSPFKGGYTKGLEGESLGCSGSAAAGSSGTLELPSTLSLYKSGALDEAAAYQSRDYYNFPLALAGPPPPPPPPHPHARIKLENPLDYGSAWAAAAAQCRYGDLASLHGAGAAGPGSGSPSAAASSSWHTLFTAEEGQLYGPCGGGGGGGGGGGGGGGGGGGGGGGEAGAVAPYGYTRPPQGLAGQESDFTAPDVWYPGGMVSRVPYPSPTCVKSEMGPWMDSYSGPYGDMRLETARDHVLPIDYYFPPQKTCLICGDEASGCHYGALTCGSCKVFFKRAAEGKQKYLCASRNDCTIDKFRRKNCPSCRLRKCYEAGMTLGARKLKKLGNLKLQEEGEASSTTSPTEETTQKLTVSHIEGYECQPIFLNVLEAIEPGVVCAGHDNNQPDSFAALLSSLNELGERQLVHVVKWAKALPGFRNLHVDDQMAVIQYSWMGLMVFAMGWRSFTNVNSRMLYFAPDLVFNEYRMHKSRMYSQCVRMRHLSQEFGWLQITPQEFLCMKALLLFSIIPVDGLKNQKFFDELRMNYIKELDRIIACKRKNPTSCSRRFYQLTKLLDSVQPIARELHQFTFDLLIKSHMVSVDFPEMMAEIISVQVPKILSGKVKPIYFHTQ
The experiment in a line: Binding affinity for androgen receptor.

Assay [1] concerns the target T2, Glucocorticoid receptor (Homo sapiens, UniProt P04150).
T2 sequence (P04150 whole entry): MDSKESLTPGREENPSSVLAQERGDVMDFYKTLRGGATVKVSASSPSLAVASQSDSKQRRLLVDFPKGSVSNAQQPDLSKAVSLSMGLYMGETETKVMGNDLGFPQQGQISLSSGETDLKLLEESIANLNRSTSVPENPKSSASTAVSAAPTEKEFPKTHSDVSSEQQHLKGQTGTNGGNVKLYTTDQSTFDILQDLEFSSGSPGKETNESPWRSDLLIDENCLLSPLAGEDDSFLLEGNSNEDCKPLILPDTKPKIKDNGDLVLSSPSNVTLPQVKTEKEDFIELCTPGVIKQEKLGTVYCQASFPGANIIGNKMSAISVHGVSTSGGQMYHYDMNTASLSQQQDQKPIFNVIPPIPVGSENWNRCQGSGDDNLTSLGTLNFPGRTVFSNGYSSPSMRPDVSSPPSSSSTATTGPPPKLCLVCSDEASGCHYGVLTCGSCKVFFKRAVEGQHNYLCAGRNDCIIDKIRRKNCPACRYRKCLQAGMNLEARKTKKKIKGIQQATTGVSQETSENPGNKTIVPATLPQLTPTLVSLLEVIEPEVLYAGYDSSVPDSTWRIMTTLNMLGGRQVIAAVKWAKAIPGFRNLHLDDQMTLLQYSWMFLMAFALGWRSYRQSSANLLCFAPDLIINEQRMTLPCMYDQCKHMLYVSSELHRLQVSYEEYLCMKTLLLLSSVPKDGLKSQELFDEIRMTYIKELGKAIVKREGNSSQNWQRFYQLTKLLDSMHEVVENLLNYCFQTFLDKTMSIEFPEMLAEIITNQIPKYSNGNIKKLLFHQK
The assay can be described thus: Glucocorticoid-induced aromatase activity in human skin fibroblasts. Type of assay: functional.

Assay [2] concerns the target T2, Glucocorticoid receptor. The experiment in a line: Binding affinity for glucocorticoid receptor.
The next assay addresses Estrogen receptor (Homo sapiens, UniProt Q92731+P03372). The experiment in a line: Binding affinity for estrogen receptor. Type of assay: protein assay.
Assay [3] addresses T2, Glucocorticoid receptor. The experiment in a line: Repression activity of GR ligand with interleukin-6 receptor in native cell assay using Dexamethasone was determined as maximal potency. Type of assay: functional.
Assay [4] addresses T3, Mineralocorticoid receptor (Homo sapiens, UniProt P08235).
T3 sequence (P08235 whole entry): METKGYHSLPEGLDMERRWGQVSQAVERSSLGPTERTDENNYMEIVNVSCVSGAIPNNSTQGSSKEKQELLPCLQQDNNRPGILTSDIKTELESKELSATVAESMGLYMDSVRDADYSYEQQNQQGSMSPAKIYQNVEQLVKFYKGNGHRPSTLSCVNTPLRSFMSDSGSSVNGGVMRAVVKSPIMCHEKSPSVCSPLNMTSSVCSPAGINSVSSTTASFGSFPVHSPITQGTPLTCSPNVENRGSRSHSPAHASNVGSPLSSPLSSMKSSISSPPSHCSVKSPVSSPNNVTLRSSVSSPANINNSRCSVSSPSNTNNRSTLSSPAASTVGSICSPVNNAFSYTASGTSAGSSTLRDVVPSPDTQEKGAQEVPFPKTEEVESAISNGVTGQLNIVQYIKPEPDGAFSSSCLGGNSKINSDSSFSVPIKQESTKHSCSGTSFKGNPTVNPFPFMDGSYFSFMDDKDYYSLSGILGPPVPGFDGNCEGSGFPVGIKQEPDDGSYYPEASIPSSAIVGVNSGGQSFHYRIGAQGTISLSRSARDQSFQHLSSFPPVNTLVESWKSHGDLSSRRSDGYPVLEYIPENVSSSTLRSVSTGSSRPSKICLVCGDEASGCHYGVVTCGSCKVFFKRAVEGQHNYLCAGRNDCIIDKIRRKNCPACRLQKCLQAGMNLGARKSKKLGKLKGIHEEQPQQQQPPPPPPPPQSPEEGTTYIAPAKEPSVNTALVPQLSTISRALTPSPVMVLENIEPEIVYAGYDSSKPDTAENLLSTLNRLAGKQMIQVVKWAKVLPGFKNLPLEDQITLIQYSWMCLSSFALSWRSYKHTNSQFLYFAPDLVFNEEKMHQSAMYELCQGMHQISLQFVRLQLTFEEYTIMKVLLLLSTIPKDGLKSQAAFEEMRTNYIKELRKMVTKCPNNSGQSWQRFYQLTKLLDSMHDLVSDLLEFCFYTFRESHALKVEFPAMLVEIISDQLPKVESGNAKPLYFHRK
The assay can be described thus: Binding affinity for mineralocorticoid receptor.

pIC50, pKi: −log10 of the molar value.

For the compound `COc1cccc2c1-c1ccc3c(c1C(c1cccc(OCSC)c1)O2)C(C)=CC(C)(C)N3` (stereo unspecified), the pKi on Androgen receptor was 5.51; at Glucocorticoid receptor [2], 8.40; in assay [4], 5.42. Moreover, the pIC50 at Glucocorticoid receptor [1] is 6.85; against Glucocorticoid receptor [3], 7.80. The same compound showed a Ki at Estrogen receptor above 1000 nM.

For the origin of these results see ChEMBL document CHEMBL1134574, “Synthesis and characterization of non-steroidal ligands for the glucocorticoid receptor: selective quinoline derivatives with prednisolone-equivalent functional activity” (J Med Chem, 2001).
